{"source": "PubChem BioAssay (NCI)", "test_in_all_cases": "NCI tumour cell line growth inhibition, 48 h", "key": {"OVCAR-5 ovarian": {"tested_on": "OVCAR-5 ovarian"}, "LXFL 529 NSCLC": {"tested_on": "LXFL 529 NSCLC"}, "IGROV1 ovarian": {"tested_on": "IGROV1 ovarian"}, "CCRF-CEM leukemia": {"tested_on": "CCRF-CEM leukemia"}, "DMS 114 small cell lung": {"tested_on": "DMS 114 small cell lung"}, "M19-MEL melanoma": {"tested_on": "M19-MEL melanoma"}, "HCT-15 colon": {"tested_on": "HCT-15 colon"}, "OVCAR-4 ovarian": {"tested_on": "OVCAR-4 ovarian"}, "U251 CNS": {"tested_on": "U251 CNS"}, "KM12 colon": {"tested_on": "KM12 colon"}, "786-0 renal": {"tested_on": "786-0 renal"}, "SF-295 CNS": {"tested_on": "SF-295 CNS"}, "CAKI-1 renal": {"tested_on": "CAKI-1 renal"}, "HL-60(TB) leukemia": {"tested_on": "HL-60(TB) leukemia"}, "MOLT-4 leukemia": {"tested_on": "MOLT-4 leukemia"}, "SK-OV-3 ovarian": {"tested_on": "SK-OV-3 ovarian"}, "OVCAR-8 ovarian": {"tested_on": "OVCAR-8 ovarian"}, "EKVX NSCLC": {"tested_on": "EKVX NSCLC"}, "OVCAR-3 ovarian": {"tested_on": "OVCAR-3 ovarian"}, "UO-31 renal": {"tested_on": "UO-31 renal"}, "RXF-631 renal": {"tested_on": "RXF-631 renal"}, "K-562 leukemia": {"tested_on": "K-562 leukemia"}, "HT29 colon": {"tested_on": "HT29 colon"}, "NCI-H23 lung": {"tested_on": "NCI-H23 lung"}, "SF-268 CNS": {"tested_on": "SF-268 CNS"}, "SN12C renal": {"tested_on": "SN12C renal"}, "TK-10 renal": {"tested_on": "TK-10 renal"}, "HOP-62 NSCLC": {"tested_on": "HOP-62 NSCLC"}, "M14 melanoma": {"tested_on": "M14 melanoma"}, "COLO 205 colon": {"tested_on": "COLO 205 colon"}, "UACC-257 melanoma": {"tested_on": "UACC-257 melanoma"}, "SR leukemia": {"tested_on": "SR leukemia"}, "UACC-62 melanoma": {"tested_on": "UACC-62 melanoma"}, "A498 renal": {"tested_on": "A498 renal"}, "LOX IMVI melanoma": {"tested_on": "LOX IMVI melanoma"}, "SNB-19 CNS": {"tested_on": "SNB-19 CNS"}, "KM20L2 colon": {"tested_on": "KM20L2 colon"}, "HOP-18 NSCLC": {"tested_on": "HOP-18 NSCLC"}, "NCI-H226 lung": {"tested_on": "NCI-H226 lung"}, "XF 498 CNS": {"tested_on": "XF 498 CNS"}, "HOP-92 NSCLC": {"tested_on": "HOP-92 NSCLC"}, "NCI-H522 lung": {"tested_on": "NCI-H522 lung"}, "SK-MEL-28 melanoma": {"tested_on": "SK-MEL-28 melanoma"}, "SF-539 CNS": {"tested_on": "SF-539 CNS"}, "SW-620 colon": {"tested_on": "SW-620 colon"}, "SK-MEL-2 melanoma": {"tested_on": "SK-MEL-2 melanoma"}, "SNB-75 CNS": {"tested_on": "SNB-75 CNS"}, "RXF 393 renal": {"tested_on": "RXF 393 renal"}, "ACHN renal": {"tested_on": "ACHN renal"}, "A549 NSCLC": {"tested_on": "A549 NSCLC"}, "HCT-116 colon": {"tested_on": "HCT-116 colon"}, "DLD-1 colon": {"tested_on": "DLD-1 colon"}, "NCI-H460 lung": {"tested_on": "NCI-H460 lung"}, "MALME-3M melanoma": {"tested_on": "MALME-3M melanoma"}, "HCC-2998 colon": {"tested_on": "HCC-2998 colon"}, "SK-MEL-5 melanoma": {"tested_on": "SK-MEL-5 melanoma"}, "SNB-78 CNS": {"tested_on": "SNB-78 CNS"}}, "note": "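Exposure lasted 48 hours, with cells grown in 96-well plates and compounds tested at five concentrations. Definition used: TGI = concentration required for complete inhibition of growth.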"}
{"smiles": "O=c1[nH]c(=O)n(C2OC(COP(=O)(O)OP(=O)(O)OC3OC(CO)C(O)C(O)C3O)C(O)C2O)cc1F", "note": "(configuration not stated)", "values": [{"measurement": "TGI", "setting": "OVCAR-5 ovarian", "result": 5.33, "unit": "µM"}, {"measurement": "TGI", "setting": "LXFL 529 NSCLC", "result": "> 100", "unit": "µM"}, {"measurement": "TGI", "setting": "IGROV1 ovarian", "result": 6.26, "unit": "µM"}, {"measurement": "TGI", "setting": "CCRF-CEM leukemia", "result": "> 100", "unit": "µM"}, {"measurement": "TGI", "setting": "DMS 114 small cell lung", "result": "> 100", "unit": "µM"}, {"measurement": "TGI", "setting": "M19-MEL melanoma", "result": 59.4, "unit": "µM"}, {"measurement": "TGI", "setting": "HCT-15 colon", "result": 11.5, "unit": "µM"}, {"measurement": "TGI", "setting": "OVCAR-4 ovarian", "result": 7.25, "unit": "µM"}, {"measurement": "TGI", "setting": "U251 CNS", "result": "> 100", "unit": "µM"}, {"measurement": "TGI", "setting": "KM12 colon", "result": 10.7, "unit": "µM"}, {"measurement": "TGI", "setting": "786-0 renal", "result": 2680, "unit": "nM"}, {"measurement": "TGI", "setting": "SF-295 CNS", "result": "> 100", "unit": "µM"}, {"measurement": "TGI", "setting": "CAKI-1 renal", "result": 18.3, "unit": "µM"}, {"measurement": "TGI", "setting": "HL-60(TB) leukemia", "result": "> 100", "unit": "µM"}, {"measurement": "TGI", "setting": "MOLT-4 leukemia", "result": "> 100", "unit": "µM"}, {"measurement": "TGI", "setting": "SK-OV-3 ovarian", "result": "> 87.5", "unit": "µM"}, {"measurement": "TGI", "setting": "OVCAR-8 ovarian", "result": "> 100", "unit": "µM"}, {"measurement": "TGI", "setting": "EKVX NSCLC", "result": "> 100", "unit": "µM"}, {"measurement": "TGI", "setting": "OVCAR-3 ovarian", "result": 4.73, "unit": "µM"}, {"measurement": "TGI", "setting": "UO-31 renal", "result": 2290, "unit": "nM"}, {"measurement": "TGI", "setting": "RXF-631 renal", "result": "> 100", "unit": "µM"}, {"measurement": "TGI", "setting": "K-562 leukemia", "result": "> 100", "unit": "µM"}, {"measurement": "TGI", "setting": "HT29 colon", "result": "> 100", "unit": "µM"}, {"measurement": "TGI", "setting": "NCI-H23 lung", "result": "> 31.5", "unit": "µM"}, {"measurement": "TGI", "setting": "SF-268 CNS", "result": "> 100", "unit": "µM"}, {"measurement": "TGI", "setting": "SN12C renal", "result": "> 100", "unit": "µM"}, {"measurement": "TGI", "setting": "TK-10 renal", "result": 30.4, "unit": "µM"}, {"measurement": "TGI", "setting": "HOP-62 NSCLC", "result": 4.3, "unit": "µM"}, {"measurement": "TGI", "setting": "M14 melanoma", "result": "> 50.1", "unit": "µM"}, {"measurement": "TGI", "setting": "COLO 205 colon", "result": 7.14, "unit": "µM"}, {"measurement": "TGI", "setting": "UACC-257 melanoma", "result": 48.9, "unit": "µM"}, {"measurement": "TGI", "setting": "SR leukemia", "result": "> 21.6", "unit": "µM"}, {"measurement": "TGI", "setting": "UACC-62 melanoma", "result": 3.16, "unit": "µM"}, {"measurement": "TGI", "setting": "A498 renal", "result": 7.43, "unit": "µM"}, {"measurement": "TGI", "setting": "LOX IMVI melanoma", "result": 4.13, "unit": "µM"}, {"measurement": "TGI", "setting": "SNB-19 CNS", "result": "> 100", "unit": "µM"}, {"measurement": "TGI", "setting": "KM20L2 colon", "result": "> 100", "unit": "µM"}, {"measurement": "TGI", "setting": "HOP-18 NSCLC", "result": "> 100", "unit": "µM"}, {"measurement": "TGI", "setting": "NCI-H226 lung", "result": 2720, "unit": "nM"}, {"measurement": "TGI", "setting": "XF 498 CNS", "result": 16.1, "unit": "µM"}, {"measurement": "TGI", "setting": "HOP-92 NSCLC", "result": 9.62, "unit": "µM"}, {"measurement": "TGI", "setting": "NCI-H522 lung", "result": 7.75, "unit": "µM"}, {"measurement": "TGI", "setting": "SK-MEL-28 melanoma", "result": "> 100", "unit": "µM"}, {"measurement": "TGI", "setting": "SF-539 CNS", "result": 1490, "unit": "nM"}, {"measurement": "TGI", "setting": "SW-620 colon", "result": "> 100", "unit": "µM"}, {"measurement": "TGI", "setting": "SK-MEL-2 melanoma", "result": "> 91.3", "unit": "µM"}, {"measurement": "TGI", "setting": "SNB-75 CNS", "result": "> 100", "unit": "µM"}, {"measurement": "TGI", "setting": "RXF 393 renal", "result": 529, "unit": "nM"}, {"measurement": "TGI", "setting": "ACHN renal", "result": 7.18, "unit": "µM"}, {"measurement": "TGI", "setting": "A549 NSCLC", "result": 8.56, "unit": "µM"}, {"measurement": "TGI", "setting": "HCT-116 colon", "result": 1230, "unit": "nM"}, {"measurement": "TGI", "setting": "DLD-1 colon", "result": "> 100", "unit": "µM"}, {"measurement": "TGI", "setting": "NCI-H460 lung", "result": 429, "unit": "nM"}, {"measurement": "TGI", "setting": "MALME-3M melanoma", "result": 20.9, "unit": "µM"}, {"measurement": "TGI", "setting": "HCC-2998 colon", "result": "> 100", "unit": "µM"}, {"measurement": "TGI", "setting": "SK-MEL-5 melanoma", "result": 23.7, "unit": "µM"}, {"measurement": "TGI", "setting": "SNB-78 CNS", "result": "> 100", "unit": "µM"}]}
